Data published in article PMC9138991, “Effect of Trimethine Cyanine Dye- and Folate-Conjugation on the In Vitro Biological Activity of Proapoptotic Peptides” (Biomolecules, 2022).

Assays:
Assay type in all cases: cell-based, human
KB cells = test: Cell viability assay (CellTiter-Blue), KB cells; conditions: 7 × 10^3 cells per well, folic acid-depleted RPMI-1640 + 10% FBS, 1% DMSO, 24 h at 37 °C, then CellTiter-Blue 4 h, three biological replicates fitted in Origin, standard error in brackets
Description: (§1) KB and MCF7 cells were kindly gifted by Prof. Arwyn T. Jones (Cardiff University), HEK293 cells were purchased from Public Health England, and SK-OV-3 cells were purchased from National Collection of Authenticated Cell Cultures (https://cell-bank.org.cn/). Cells were routinely tested for mycoplasma infection. KB and SK-OV-3 cells were maintained in T75 flasks at 37 °C in a 5% CO2 atmosphere in folic acid-depleted Roswell Park Memorial Institute (RPMI)-1640 medium supplemented with 10% (v/v) fetal bovine serum (FBS). MCF7 and HEK293 cells were maintained in T75 flasks at 37 °C in a 5% CO2 atmosphere in Dulbecco’s Modified Eagle’s medium (DMEM) supplemented with 10% (v/v) FBS. Cells were maintained at a sub-confluent monolayer and split at 80–85% confluency. For splitting, cells were washed with PBS, trypsinized in 1 mL of trypsin, and 200 µL of the 1000 µL trypsin cell suspension was re-suspended in 12 mL fresh DMEM containing 10% (v/v) FBS in a new T75 flask. KB and SK-OV-3 cells were used for biological experiments after being maintained for at least 10 days in folic acid-depleted RPMI-1640 medium.
(§2) SK-OV-3, MCF7, and HEK293 cells were seeded at a density of 2 × 10^4 cells per well in a Nunc™ MicroWell™ 96-well plate and grown at 37 °C in a 5% CO2 atmosphere in DMEM supplemented with 10% (v/v) FBS for 24 h. KB cells were seeded at a density of 7 × 10^3 cells per well in a 96-well plate and grown at 37 °C in a 5% CO2 atmosphere in folic acid-depleted RPMI-1640 medium supplemented with 10% (v/v) FBS for 24 h. Stock solutions of compounds 2–6 and 11–13 were obtained by dissolving the compounds in sterile deionized water. Compounds 1, and 7–10 were dissolved in pure DMSO. The stock solutions were diluted into the proper medium (according to the cell line tested) supplemented with 10% FBS to the appropriate concentration, and cells in each well were incubated with 100 µL of the solution. The solutions in each well were then adjusted to a concentration of 1% (v/v) DMSO. After 24 h at 37 °C, 20 µL of CellTiter-Blue™ was added to each well. The plate was incubated for another 4 h at 37 °C before analysis on a Perkin Elmer Victor X plate reader (excitation 531 nm; emission 595 nm). Each data point was calculated from a minimum of nine values resulting from three biological replicates (i.e., cells split from three different passages); each biological replicate is calculated from three technical replicates (i.e., cells split from the same passage). Value from media-only with CellTiter-Blue™ was set at 0% viability. This value was then subtracted from the values from cell-only (i.e., non-treated) wells with CellTiter-Blue™ in each biological replicate and set as 100% viability. For treatments of Cy3-containing compounds, blanks were generated with cell-free wells containing the compounds incubated for 24 h before addition of CellTiter-Blue™. The fluorescent reading for these wells was deducted from the treatment readings. Dose-response fitting curves were generated using Origin, version 2019b, OriginLab Corporation, Northampton, MA, USA (Figures S21–S24, Supplementary Materials).
(§3) Comparison of cytotoxicity fitting curves was achieved by applying the extra sum-of-squares F test, performed using GraphPad Prism version 9 for Windows, GraphPad Software, La Jolla, California, USA (https://www.graphpad.com/). […] Statistical analysis on the flow cytometry data was achieved by applying the unpaired two-tailed t-test test, performed using GraphPad Prism version 9 for Windows, GraphPad Software, La Jolla California USA, USA (https://www.graphpad.com/).
(§4) Cytotoxicity of 1–13 was evaluated using the CellTiter-Blue assay on KB, MCF7, SK-OV-3, and HEK293 cells. KB cells are derived from human cervical cancer, while SK-OV-3 cells are derived from human ovarian cancer. […] This feature is of particular relevance in anticancer applications, as it can be exploited for selective targeting and delivery. […]

SK-OV-3 cells = test: Cell viability assay (CellTiter-Blue), SK-OV-3 cells; conditions: 2 × 10^4 cells per well, medium + 10% FBS, 1% DMSO, 24 h at 37 °C, then CellTiter-Blue 4 h, three biological replicates fitted in Origin, standard error in brackets
Description: as §1, §2, §3, §4

HEK293 cells = test: Cell viability assay (CellTiter-Blue), HEK293 cells; conditions: 2 × 10^4 cells per well, DMEM + 10% FBS, 1% DMSO, 24 h at 37 °C, then CellTiter-Blue 4 h, three biological replicates fitted in Origin, standard error in brackets
Description: as §1, §2, §3, §4

MCF7 cells = test: Cell viability assay (CellTiter-Blue), MCF7 cells; conditions: MCF7 cells, 2 × 10^4 cells per well, DMEM + 10% FBS, 1% DMSO, 24 h at 37 °C, then CellTiter-Blue 4 h; three biological replicates fitted in Origin, standard error in brackets
Description: as §1, §2, §3, §4

[1] = test system: KB, MCF7, SK-OV-3, and HEK293 cells; test: Cell viability assay (CellTiter-Blue), statements over all tested cell lines
Description: as §2, §3
Cytotoxicity of 1–13 was evaluated using the CellTiter-Blue assay on KB, MCF7, SK-OV-3, and HEK293 cells. KB cells are derived from human cervical cancer, while SK-OV-3 cells are derived from human ovarian cancer. […] This feature is of particular relevance in anticancer applications, as it can be exploited for selective targeting and delivery. MCF7 is a cell line derived from human breast cancer with low levels of folate receptor α [27]. Therefore, it can serve as the negative control for folate receptor α mediated tumor-targeted drug delivery systems. HEK293 is a non-cancer cell line and was chosen to evaluate the specificity of the tested compounds toward cancer cells.

Row | SMILES | EC50 (KB cells) [µM] | EC50 (SK-OV-3 cells) [µM] | EC50 (HEK293 cells) [µM] | EC50 (MCF7 cells) [µM] | Selectivity of cytotoxicity between cell lines, in words ([1]; folate receptor α-high KB and SK-OV-3 versus MCF7 and HEK293) | EC50 ([1]; KB, SK-OV-3, MCF7 and HEK293 cells, CellTiter-Blue, 24 h) [µM] | Potency (cytotoxicity) in the tested cell lines, in words ([1]; KB, SK-OV-3, MCF7 and HEK293 cells, CellTiter-Blue, extra sum-of-squares F test)
1 | CC(=O)N[C@@H](CCCCNC(=O)[C@H](CCC(=O)O)NC(=O)c1ccc(NCc2cnc3nc(N)nc(O)c3n2)cc1)C(=O)N[C@@H](CCCCN)C(=O)N[C@@H](CC(C)C)C(=O)N[C@@H](C)C(=O)N[C@@H](CCCCN)C(=O)N[C@@H](CC(C)C)C(=O)N[C@@H](C)C(=O)N[C@@H](CCCCN)C(=O)N[C@@H](CCCCN)C(=O)N[C@@H](CC(C)C)C(=O)N[C@@H](C)C(=O)N[C@@H](CCCCN)C(=O)N[C@@H](CC(C)C)C(=O)N[C@@H](C)C(=O)N[C@@H](CCCCN)C(N)=O [Compound 11] | 242 | > 400 | > 400 | > 400 | enhanced toxicity in KB but not in SK-OV-3 cells when compared to MCF7 and HEK293 cells | – | –
2 | CC(C)C[C@@H](NC(=O)[C@H](N)CCCCN)C(=O)N[C@H](C)C(=O)N[C@H](CCCCN)C(=O)N[C@H](CC(C)C)C(=O)N[C@H](C)C(=O)N[C@H](CCCCN)C(=O)N[C@H](CCCCN)C(=O)N[C@H](CC(C)C)C(=O)N[C@H](C)C(=O)N[C@H](CCCCN)C(=O)N[C@H](CC(C)C)C(=O)N[C@H](C)C(=O)N[C@H](CCCCN)C(N)=O [Compound 3, reference compound] | 331 | > 400 | > 400 | > 400 | – | > 300 | least potent amongst the tested compounds
